In patent publication US20060281680A1, “Methods and compositions for modulating vascular integrity” (GENENTECH, INC., priority 2005, published 2006):
Numbering of substitutions follows the chain as printed. Names may count otherwise.

B1: PlGF: VEGFR-1 selective ligand (protein, UniProt P49763 19-221, looked up)
Placenta growth factor: LPAVPPQQWALSAGNGSSEVEVVPFQEVWGRSYCRALERLVDVVSEYPSEVEHMFSPSCVSLLRCTGCCGDENLHCVPVETANVTMQLLKIRSGDRPSYVELTFSQHVRCECRHSPGRQSPDMPGDFRADAPSFLPPRRSLPMLFRMEWGCALTGSQSAVWPSSPVPEEIPRMHPGRNGKKQQRKPLREKMKPERCGDAVPRR
B2: VEGFR2-sel: KDR-selective VEGF mutant: VEGF D63S/G65M/L66R (protein)
chain: APMAEGGGQNHHEVVKFMDVYQRSYCHPIETLVDIFQEYPDEIEYIFKPSCVPLMRCGGCCNSEMRECVPTEESNITMQIMRIKPHQGQHIGEMSFLQHNKCECRPKKDRARQENPCGPCSERRKHLFVQDPQTCKCSCKNTDSRCKARQLELNERTCRCDKPRR
B3: VEGFR1-sel: Flt-selective VEGF mutant I43A/I46A/Q79A/I83 (protein)
chain: B2 chain with I43A, I46A, S63D, M65G, R66L, Q79A

Experiments:
Assay type in all cases: cell-based, human
[1] = system: Cox-2, E-selectin, TF; assay: Real-time RT-PCR of inflammatory marker / VEGF target genes in HUVECs; conditions: activated endothelial cells, 4 hours of incubation
Text: (§1) Cells and cell assays. Primary human endothelial cells were purchased from Clonetics (Santa Rosa, Calif.) and cultured according to the manufacturer's instructions. For gene calling experiments, human umbilical vein endothelial cells (HUVECs) were purchased from Clonetics (BioWhittaker, Walkersville, Md.) and maintained in endothelial growth medium (EBM-2) complemented with 5% fetal calf serum (FCS) following the manufacturer's instructions. Cells (1×107) were split at a cell density of 19 000 cell/cm2 and triplicate experiments for each condition were run in parallel. Twenty-four hours after plating the cells, cell were washed 3 times with phosphate-buffered saline (PBS) and media (Clonetics) containing either 0.1% bovine serum albumin (BSA) or 0.1% BSA plus VEGF (30 ng/mL) or 5% FCS. RNA isolation and reverse transcription-PCR (RT-PCR) analysis was performed as described.^21 For cell culture experiments, the following conditions were used: human (h) VEGF, 30 ng/mL; hTNF-α, 10 ng/mL; PMA, 200 ng/mL (Calbiochem, LaJolla, Calif.); CsA, 1 μM (Calbiochem); IO 5 μM (Sigma, St Louis, Mo.); thapsigargin, 50 nM (Sigma). In one instance inhibiting (si) RNAs were generated by Dharmacon (Lafayette, Colo.) based on the full-length cDNAs of the respective gene and using the “Smart-pool” service (Dharmacon, Lafayette, Colo.). For adenoviral transduction survival experiments, human umbilical vein endothelial cells (HUVECs) were maintained in endothelial growth medium (EBM-2) complemented with 5% FCS following the manufacturer's instructions. 3×10^5 cells were split per well of a 6 well plate (Primaria, BD Biosciences, Bedford, Mass.) and duplicate experiments for each condition were run in parallel. Cells were infected with adenovirus (MOI=100) encoding for a gD peptide (Ad-Control), DSCR1 (Ad-DSCR1) or an antisense construct with the coding sequence inverted (Ad-DSCR1-AS) for 2 h in serum free media containing 10 mM […] and 10 nM MgCl2 on a vertical shaker at room temperature. Thereafter, 5 times the volume of regular growth medium containing 5% FCS was added and cells were kept for 1 day in a CO2 incubator. Thereafter, cells were washed three times with PBS and basal media (Clonetics, Santa Rosa, Calif.) containing 0.1 % BSA was added and PMA/IO, H202, and ZVAD as indicated. 24 hours after serum starvation and dosing, cell were counted on a Coulter brand style cell counter. For cell culture experiments, the following conditions were used: PMA: 200 ng/ml (Calbiochem, LaJolla, Calif.), Ionomycine: 5 μM (Sigma, St. Louis, Mo.), a 3% H202 solution was diluted 1:300 in basal media, 0.1% BSA to result in a 0.01% H202 solution, ZVAD 5 μM.

[2] = system: DSCR1; assay: Western blot of DSCR1 protein in whole cell extracts of HUVECs; conditions: 6 hours of stimulation
Procedure: (§2) Cells cultured in 10-cm dishes were washed twice in Tris (tris(hydroxymethyl)aminomethane)-buffered saline, and 0.6 mL RIPA buffer (10 mM PBS, 1% Nonidet P-40, 0.5% sodium deoxycholate, 0.1% sodium dodecyl sulfate [SDS], […] phenylmethylsulfonyl fluoride, 30 μg/mL aprotinin, 1 mM sodium orthovanadate), and protease inhibitors (Roche Pharmaceuticals, Gaithersburg, Md.) were added. Mouse monoclonal antibody (mAb) directed against human NFATc 1, c2, and c3 was purchased from Santa Cruz Biotechnology (Santa Cruz, Calif.). Affinity-purified goat polyclonal antibody against human E-selectin, vascular cell adhesion molecule-1 (VCAM-1), intercellular adhesion molecule-1 (ICAM-1), and Cox-2 was from BD Pharmingen. Total endothelial cell extract, polyacrylamide gel electrophoresis (PAGE), blotting, and immunodetection were performed according to the Santa Cruz Biotechnology protocol. A total of […] whole-cell extract was loaded on each lane of a 4% to 16% polyacrylamide gel. The enhanced chemiluminescence (ECL) reaction kit was purchased from Amersham Pharmacia Biotech (Piscataway, N.J.), and horseradish peroxidase streptavidin from Vector Laboratories (Burlingame, Calif.) was used. For NFATc1 experiments, equal amounts of cell extract were loaded to visualize NFATc1 (mAb 7A6; 1:500; Santa Cruz Biotechnology) and the loading control α-tubulin (mAb from ICN, Santa Ana, Calif.; 1:5000). For Cox-2 and TF immunoblot analysis equal amounts of cell lysate were loaded on a 6% to 12% gradient SDS-PAGE. Cox-2 was analyzed with an anti-Cox2 mAb (RDI, 1:500) and TF with an anti-hTF mAb (clone 7G11) was generated at Genentech, and used at a 1:500 dilution. Before loading the samples on the gel, the protein amounts were quantified and adjusted accordingly. As loading control, an anti-γ-adaptin mAb was used (1:1000) on a 4% to 20% polyacrylamide gel.
DSCR1 was PCR amplified with primers DSCR1-EcoRI-Pro 5′, adding an extra proline and DSCR1-Stop-XhoI 3′, by using DSCR1 cDNA as a template and cloned into pGEX-KG. GST-DSCR1 was expressed and purified essentially as described previously.^23 Polyclonal rabbit anti-GST-DSCR1 was prepared by immunization with recombinant GST-DSCR1. Filtered crude serum was used for Western blots (1:400).

[3] = system: DSCR1; assay: DSCR1 expression analysis by real-time RT-PCR (TaqMan) in HUVECs; conditions: for DSCR1 mRNA levels: HUVECs, after 5.5 hours; for DSCR1 expression levels (real-time RT-PCR): serum-starved HUVECs, over 36 hours
Text: as §1

[4] = system: DSCR1; assay: Western blot of DSCR1 after siRNA transfection of HUVECs
Procedure: as §2, with “The enhanced chemiluminescence (ECL) reaction kit was purchased from Amersham Pharmacia Biotech (Piscataway, N.J.), and horseradish peroxidase streptavidin from Vector Laboratories (Burlingame, Calif.) was used. For NFATc1 experiments, equal amounts of cell extract were loaded to visualize NFATc1 (mAb 7A6; 1:500; Santa Cruz Biotechnology) and the loading control α-tubulin (mAb from ICN, Santa Ana, Calif.; 1:5000). For Cox-2 and TF immunoblot analysis equal amounts of cell lysate were loaded on a 6% to 12% gradient SDS-PAGE.” left out, “As loading control, an anti-γ-adaptin mAb was used (1:1000) on a 4% to 20% polyacrylamide gel.” left out

[5] = system: NFAT; assay: NFAT luciferase reporter gene assay in endothelial cells
Procedure: For HUVEC and human microvascular endothelial cell (HMVECs) transient transfections, cells (7.5×104) were plated per well of a 6-well dish in 3 mL growth medium (Primaria; BD Biosciences, Bedford, Mass.). The amounts of plasmid DNA used in the lipofection mixture were calculated for transfection of the total of 3 wells. Then, 1.25 μg expression vector, 3.75 μg luciferase reporter, and 2.0 μg SV-Renilla reference reporters were mixed and 14 μL F1 lipofectin reagent (Targeting Systems, Santee, Calif.) was added. Then, 4.5 mL high-glucose Dulbecco modified Eagle medium (DMEM) was added to the mixture. Transient transfection was conducted as recommended by the manufacturer. For reporter gene expression experiments, cells were lysed by using the Dual Luciferase Reporter Kit (Promega, San Luis Obispo, Calif.) in 300 μL of 1×passive lysis buffer following the recommendations of the manufacturer.
For transient transfection experiments including siRNA, HUVECs were plated in 6-well plates as described for transient transfection experiments. For 6 replicas, 600 pmol siRNA (Dharmacon, Lafayette, Colo.), 7.5 μg luciferase, and 4 μg Renilla reporter construct were mixed in 6 mL high-glucose DMEM. For FACS and immunohistochemical (IHC) experiments, 11.5 μg enhanced green fluorescent protein (EGFP) plasmid was added instead of the luciferase plasmid. […]

[6] = system: TF, VCAM-1, E-selectin, ICAM-1; assay: FACS analysis of inflammatory markers on GFP+ siRNA-transfected HUVECs
Procedure: For transient transfection experiments including siRNA, HUVECs were plated in 6-well plates as described for transient transfection experiments. For 6 replicas, 600 pmol siRNA (Dharmacon, Lafayette, Colo.), 7.5 μg luciferase, and 4 μg Renilla reporter construct were mixed in 6 mL high-glucose DMEM. For FACS and immunohistochemical (IHC) experiments, 11.5 μg enhanced green fluorescent protein (EGFP) plasmid was added instead of the luciferase plasmid. Prior to incubation at 37° C. for 25 to 30 minutes, 30 μL Targefect solution A and 60 μL Targefect solution B (Targeting Systems) were added to the mixture; 1 mL of this solution was used for lipofection as described. Cells were washed twice with PBS prior to addition of serum-free medium and dosing for the indicated amount of time.

[7] = system: DSCR1; assay: DSCR1 expression by real-time RT-PCR in HPAECs, HMVECs and HUAECs; conditions: HMVECs, HUAECs
Text: Cells and cell assays. Primary human endothelial cells were purchased from Clonetics (Santa Rosa, Calif.) and cultured according to the manufacturer's instructions. For gene calling experiments, human umbilical vein endothelial cells (HUVECs) were purchased from Clonetics (BioWhittaker, Walkersville, Md.) and maintained in endothelial growth medium (EBM-2) complemented with 5% fetal calf serum (FCS) following the manufacturer's instructions. Cells (1×107) were split at a cell density of 19 000 cell/cm2 and triplicate experiments for each condition were run in parallel. Twenty-four hours after plating the cells, cell were washed 3 times with phosphate-buffered saline (PBS) and media (Clonetics) containing either 0.1% bovine serum albumin (BSA) or 0.1% BSA plus VEGF (30 ng/mL) or 5% FCS. RNA isolation and reverse transcription-PCR (RT-PCR) analysis was performed as described.^21 For cell culture experiments, the following conditions were used: human (h) VEGF, 30 ng/mL; hTNF-α, 10 ng/mL; PMA, 200 ng/mL (Calbiochem, LaJolla, Calif.); CsA, 1 μM (Calbiochem); IO 5 μM (Sigma, St Louis, Mo.); thapsigargin, 50 nM (Sigma). […] 24 hours after serum starvation and dosing, cell were counted on a Coulter brand style cell counter. […]

[8] = GFP+ activated endothelial cells

Row | Molecule | DSCR1 protein levels [2] | DSCR1 mRNA levels [3] | DSCR1 expression levels (real-time RT-PCR) [3] | further results
1 | C/C=C(/C)C(=O)O[C@H]1C(C)=C2[C@H]([C@@H]1OC(=O)CCCCCCC)[C@@](C)(OC(C)=O)C[C@H](OC(=O)CCC)[C@@]1(O)[C@H]2OC(=O)[C@@]1(C)O [thapsigargin, reference compound] | induction of DSCR1 | significantly increased | – | induction of COX2, E-selectin and TF mRNA [1]: significant induction
2 | TNF-α | unable to detect increased DSCR1 protein levels | significantly increased | – | –
3 | b-FGF: basic fibroblast growth factor, R&D Systems | no significant increase | – | did not alter DSCR1 levels significantly | –
4 | ionomycine [reference compound] | – | significantly increased | – | –
5 | siDSCR1: siRNA to DSCR1 (NM_004414): pool of four in VEGF studies, AACGUAUGACAAGGACAUCAC in PMA/IO studies (one strand only stated, further chemistry not given here) | – | – | – | DSCR1 protein expression from cotransfected PRKN-DSCR1-FLAG ([4]; anti-Flag Western blot): complete absence; reduction in endogenous DSCR1 levels ([4]; rabbit polyclonal antiserum Western blot): 50% to 70%; increase in NFAT activity relative to siControl ([5]; HUVECs in presence of IO/PMA): 2 fold; increase in NFAT activity relative to siControl ([5]; HUVECs in presence of VEGF): 3 fold; ICAM-1 expression [6, 8]: not significantly affected; expression levels of TF, E-selectin and VCAM-1 [6, 8]: increase; magnitude of induction of inflammatory gene expression in VEGF-stimulated versus PMA/IO-stimulated cells ([6]; GFP+ endothelial cells): clearly below
6 | B1 | – | – | failed to induce alterations in DSCR1 expression | –
7 | B2 | – | – | equally potent to VEGF | DSCR1 expression (real-time RT-PCR) [7]: increased levels of DSCR1 expression
8 | B3 | – | – | failed to induce alterations in DSCR1 expression | –
